Measurements: patent publication US11161837B2, “Benzofuran derivatives for the treatment of hepatitis C” (BRISTOL-MYERS SQUIBB COMPANY, priority 2016, dated 2021)

What was measured:
[1] = tested on: genotype 1b (Con-1) HCV replicon in Huh-7 cells; assay: HCV replicon luciferase assay; format: cell-based; conditions: 1b replicon, Huh-7, Renilla luciferase, 3 days incubation
In short: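 Huh-7 cells carrying Con-1 genotype 1b replicon with Renilla luciferase reporter seeded onto titrated compound in DMEM, 4% FBS, 0.5% DMSO, 3 days at 37 °C. Luciferase read with EnduRen substrate (7.5 μM final) after ≥1 h; EC50 by four-parameter logistic fit.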

[2] = target: T1, NS5B proteins of HCV genotype 1b (Con1) (Hepatitis C virus genotype 1b, UniProt Q9WMX2); assay: HCV NS5B RdRp enzyme assay; format: biochemical; conditions: 1b enzyme
T1 construct: Each untagged protein was expressed with an 18 amino acid C-terminal truncation to enhance the solubility; made in house; host or cells: E. coli BL21(DE3), pET21a
T1 sequence (Q9WMX2 2420-2992): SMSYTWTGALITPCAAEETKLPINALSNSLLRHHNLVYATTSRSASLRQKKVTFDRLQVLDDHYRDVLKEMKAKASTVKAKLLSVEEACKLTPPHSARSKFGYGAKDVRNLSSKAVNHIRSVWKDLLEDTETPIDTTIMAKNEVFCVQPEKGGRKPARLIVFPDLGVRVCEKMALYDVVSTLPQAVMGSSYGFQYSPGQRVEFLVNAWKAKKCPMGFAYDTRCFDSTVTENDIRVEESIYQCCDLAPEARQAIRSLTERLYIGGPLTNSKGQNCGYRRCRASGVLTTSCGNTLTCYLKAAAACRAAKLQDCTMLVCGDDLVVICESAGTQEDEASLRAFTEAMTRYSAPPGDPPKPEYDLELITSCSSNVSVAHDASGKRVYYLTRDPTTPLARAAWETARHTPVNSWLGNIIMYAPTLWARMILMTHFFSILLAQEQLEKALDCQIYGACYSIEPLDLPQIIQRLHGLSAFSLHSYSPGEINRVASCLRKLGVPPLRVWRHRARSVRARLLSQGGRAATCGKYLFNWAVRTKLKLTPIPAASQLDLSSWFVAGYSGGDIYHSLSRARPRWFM
Description: HCVNS5B RdRp Cloning, Expression, and Purification.
The cDNA encoding NS5B proteins of HCV genotype 1b (Con1), a genotype 1b variant with amino acid 316 mutated from cysteine to asparagine, and genotype 2a (JFH-1), were cloned into the pET21a expression vector. Each untagged protein was expressed with an 18 amino acid C-terminal truncation to enhance the solubility. The E. coli competent cell line BL21(DE3) was used for expression of the protein. Cultures were grown at 37° C. for ˜4 hours until the cultures reached an optical density of 2.0 at 600 nm. The cultures were cooled to 20° C. and induced with 1 mM IPTG. Fresh ampicillin was added to a final concentration of 50 μg/mL and the cells were grown overnight at 20° C.
Cell pellets (3 L) were lysed for purification to yield 15-24 mgs of purified NS5B. The lysis buffer consisted of 20 mM Tris-HCl, pH 7.4, 500 mM NaCl, 0.5% triton X-100, 1 mM DTT, 1 mM EDTA, 20% glycerol, 0.5 mg/mL lysozyme, 10 mM MgCl2, 15 ug/mL deoxyribonuclease I, and Complete TM protease inhibitor tablets (Roche). After addition of the lysis buffer, frozen cell pellets were resuspended using a tissue homogenizer. To reduce the viscosity of the sample, aliquots of the lysate were sonicated on ice using a microtip attached to a Branson sonicator. The sonicated lysate was centrifuged at 100,000×g for 30 minutes at 4° C. and filtered through a 0.2 μm filter unit (Corning).
The protein was purified using two sequential chromatography steps: Heparin sepharose CL-6B and polyU sepharose 4B. The chromatography buffers were identical to the lysis buffer but contained no lysozyme, deoxyribonuclease I, MgCl2 or protease inhibitor and the NaCl concentration of the buffer was adjusted according to the requirements for charging the protein onto the column. Each column was eluted with a NaCl gradient which varied in length from 5-50 column volumes depending on the column type. After the final chromatography step, the resulting purity of the enzyme is >90% based on SDS-PAGE analysis. The enzyme was aliquoted and stored at −80° C.
HCVNS5B RdRp Enzyme Assay.
An on-bead solid phase homogeneous assay was used in a 384-well format to assess NS5B inhibitors (WangY-K, Rigat K, Roberts S, and Gao M (2006) Anal Biochem, 359: 106-111). The biotinylated oligo dT12 primer was captured on streptavidin-coupled imaging beads (GE, RPNQ0261) by mixing primer and beads in 1× buffer and incubating at room temperature for three hours. Unbound primer was removed after centrifugation. The primer-bound beads were resuspended in 3× reaction mix (20 mM Hepes buffer, pH 7.5, dT primer coupled beads, poly A template, ^3H-UTP, and RNAse inhibitor (Promega N2515)). Compounds were serially diluted 1:3 in DMSO and aliquoted into assay plates. Equal volumes (10 μL) of water, 3× reaction mix, and enzyme in 3× assay buffer (60 mM Hepes buffer, pH 7.5, 7.5 mM MgCl2, 7.5 mM KCl, 3 mM DTT, 0.03 mg/mL BSA, 6% glycerol) were added to the diluted compound on the assay plate. Final concentration of components in 384-well assay: 0.36 nM template, 15 nM primer, 0.29 μM ^3H-UTP (0.3 μCi), 1.6 U/μL RNAse inhibitor, 7 nM NS5B enzyme, 0.01 mg/mL BSA, 1 mM DTT, and 0.33 μg/μL beads, 20 mM Hepes buffer, pH 7.5, 2.5 mM MgCl2, 2.5 mM KCl, and 0.1% DMSO.
Reactions were allowed to proceed from 4 to 24 hours at 30° C. For 24 hour reactions, enzyme and inhibitors were pre-incubated for 24 hours before adding template and primer. Reactions were terminated by the addition of 50 mM EDTA (10 μL). After incubating for at least 15 minutes, plates were read on an Amersham LEADseeker multimodality imaging system.
IC50 values for compounds were determined using ten different [I]. IC50 values were calculated from the inhibition using the four-parameter logistic formula y=A+((B−A)/(1+((C/x)^D))), where A and B denote minimal and maximal % inhibition, respectively, C is the IC50, D is hill slope and x represents compound concentration.

**Q.** With `CCCc1cc2oc(-c3ccc(F)cc3)c(C(=O)NC)c2cc1-c1ccc(OC)c(C(=O)NC2(c3ncccn3)CC(OC(F)(F)F)C2)c1` (single isomer, unassigned) [Example 51b, 2-(4-Fluorophenyl)-5-(4-methoxy-3-((1-(pyrimidin-2-yl)-3-(trifluoromethoxy)cyclobutyl)carbamoyl)phenyl)-N-methyl-6-propylbenzofuran-3-carboxamide] as the compound, how does the EC50 [1] read?
**A.** 10 nM

**Q.** What about the IC50 [2] of the same compound?
**A.** 20 nM

**Q.** With `CCCc1cc2oc(-c3ccc(F)cc3)c(C(=O)NC)c2cc1-c1cc(C(=O)NC2(C)CC(OC(F)F)C2)c(OC)cc1C` (single isomer, unassigned) [Example 57a, 5-(5-((3-(Difluoromethoxy)-1-methylcyclobutyl)carbamoyl)-4-methoxy-2-methylphenyl)-2-(4-fluorophenyl)-N-methyl-6-propylbenzofuran-3-carboxamide] as the compound, how does the EC50 ([1]; Hepatitis C virus, Huh-7, 72 h) read?
**A.** 50 nM

**Q.** What about the IC50 [2] of the same compound?
**A.** 10 nM

**Q.** With `CNC(=O)c1c(-c2ccc(F)cc2)oc2cc(CCC(F)(F)F)c(-c3cccc(C(=O)NC4(C)CC(OC(F)F)C4)c3)cc12` (single isomer, unassigned) [Example 59b, 5-(3-((3-(Difluoromethoxy)-1-methylcyclobutyl)carbamoyl)phenyl)-2-(4-fluorophenyl)-N-methyl-6-(3,3,3-trifluoropropyl)benzofuran-3-carboxamide] as the compound, how does the EC50 [1] read?
**A.** 20 nM

**Q.** What about the IC50 [2] of the same compound?
**A.** 10 nM

**Q.** Which EC50 [1] does the source give for `CNC(=O)c1c(-c2ccc(F)cc2)oc2cc(CCC(F)(F)F)c(-c3ccc(F)c(C(=O)NC4(C)CC(OC(F)F)C4)c3)cc12` (single isomer, unassigned) [Example 63b, 5-(3-((3-(Difluoromethoxy)-1-methylcyclobutyl)carbamoyl)-4-fluorophenyl)-2-(4-fluorophenyl)-N-methyl-6-(3,3,3-trifluoropropyl)benzofuran-3-carboxamide] here?
**A.** 10 nM

**Q.** What about the IC50 [2] of the same compound?
**A.** 3.03 nM

**Q.** Which EC50 ([1]; Hepatitis C virus, Huh-7, 72 h) does the source give for `CNC(=O)c1c(-c2ccc(F)cc2)oc2cc(NCC(F)(F)F)c(-c3ccc(OC)c(C(=O)NC4(c5ncccn5)CC(OC(F)F)C4)c3)cc12` (single isomer, unassigned) [Example 64a] here?
**A.** 4.23 nM

**Q.** And the IC50 [2]?
**A.** 3.3 nM

**Q.** With `CNC(=O)c1c(-c2ccc(F)cc2)oc2cc(NCC(F)(F)F)c(-c3ccc(OC)c(C(=O)NC4(c5ncccn5)CC(OC(F)F)C4)c3)cc12` (single isomer, unassigned) [Example 64b] as the compound, how does the EC50 [1] read?
**A.** 5.97 nM

**Q.** What about the IC50 [2] of the same compound?
**A.** 3.97 nM

**Q.** With `CNC(=O)c1c(-c2ccc(F)cc2)oc2cc(NCC(F)(F)F)c(-c3cccc(C(=O)NC4(c5ncccn5)CC(OC(F)F)C4)c3)cc12` (single isomer, unassigned) [Example 65a] as the compound, how does the EC50 [1] read?
**A.** 8.72 nM

**Q.** What about the IC50 [2] of the same compound?
**A.** 4.55 nM

**Q.** Which results are given for `CNC(=O)c1c(-c2ccc(F)cc2)oc2cc(NCC(F)(F)F)c(-c3cccc(C(=O)NC4(c5ncccn5)CC(OC(F)F)C4)c3)cc12` (single isomer, unassigned) [Example 65b]?
**A.** EC50 [1]: 4.23 nM; IC50 [2]: 4.73 nM

**Q.** For `CCOc1cc2oc(-c3ccc(F)cc3)c(C(=O)NC)c2cc1-c1ccc(OC)c(C(=O)NC2(c3ncccn3)CC(OC(F)F)C2)c1` (single isomer, unassigned) [Example 66a, 5-(3-((3-(Difluoromethoxy)-1-(pyrimidin-2-yl)cyclobutyl)carbamoyl)-4-methoxyphenyl)-6-ethoxy-2-(4-fluorophenyl)-N-methylbenzofuran-3-carboxamide], which EC50 ([1]; Hepatitis C virus, Huh-7, 72 h) is on record?
**A.** 4.05 nM

**Q.** And the IC50 [2]?
**A.** 1.91 nM

**Q.** `CCOc1cc2oc(-c3ccc(F)cc3)c(C(=O)NC)c2cc1-c1ccc(OC)c(C(=O)NC2(c3ncccn3)CC(OC(F)F)C2)c1` (single isomer, unassigned) [Example 66b, 5-(3-((3-(Difluoromethoxy)-1-(pyrimidin-2-yl)cyclobutyl)carbamoyl)-4-methoxyphenyl)-6-ethoxy-2-(4-fluorophenyl)-N-methylbenzofuran-3-carboxamide] was tested. Which EC50 [1] did it give?
**A.** 4.39 nM

**Q.** What about the IC50 [2] of the same compound?
**A.** 2.02 nM

**Q.** Which results are given for `CCOc1cc2oc(-c3ccc(F)cc3)c(C(=O)NC)c2cc1-c1cccc(C(=O)NC2(c3ncccn3)CC(OC(F)F)C2)c1` (single isomer, unassigned) [Example 67b, 5-(3-((3-(Difluoromethoxy)-1-(pyrimidin-2-yl)cyclobutyl)carbamoyl)phenyl)-6-ethoxy-2-(4-fluorophenyl)-N-methylbenzofuran-3-carboxamide]?
**A.** EC50 [1]: 6.8 nM; IC50 [2]: 2.11 nM

**Q.** For `CNC(=O)c1c(-c2ccc(F)cc2)oc2ccc(-c3cc(C(=O)NC4(c5ncccn5)CC(=O)C4)ccc3C)c(F)c12` [Example 6, 4-Fluoro-2-(4-fluorophenyl)-N-methyl-5-(2-methyl-5-((3-oxo-1-(pyrimidin-2-yl)cyclobutyl)carbamoyl)phenyl)benzofuran-3-carboxamide], which EC50 ([1]; Hepatitis C virus, Huh-7, 72 h) is on record?
**A.** 20 nM

**Q.** And the IC50 [2]?
**A.** 10 nM

**Q.** With `CNC(=O)c1c(-c2ccc(F)cc2)oc2ccc(-c3cc(C(=O)NC4(c5ncccn5)CC(OC)(OC)C4)ccc3C)c(F)c12` [Example 7, 5-(5-((3,3-Dimethoxy-1-(pyrimidin-2-yl)cyclobutyl)carbamoyl)-2-methylphenyl)-4-fluoro-2-(4-fluorophenyl)-N-methylbenzofuran-3-carboxamide] as the compound, how does the EC50 ([1]; Hepatitis C virus, Huh-7, 72 h) read?
**A.** 60 nM

**Q.** And the IC50 [2]?
**A.** 10 nM

**Q.** `CNC(=O)c1c(-c2ccc(F)cc2)oc2ccc(-c3cc(C(=O)NC4(c5ncccn5)CC(OC)(OC)C4)cc(F)c3C)c(F)c12` [Example 8, 5-(5-(3,3-Dimethoxy-1-(pyrimidin-2-yl)cyclobutylcarbamoyl)-3-fluoro-2-methylphenyl)-4-fluoro-2-(4-fluorophenyl)-N-methylbenzofuran-3-carboxamide] was tested. Which EC50 ([1]; Hepatitis C virus, Huh-7, 72 h) did it give?
**A.** 20 nM

**Q.** What about the IC50 [2] of the same compound?
**A.** 40 nM

**Q.** Which EC50 ([1]; Hepatitis C virus, Huh-7, 72 h) does the source give for `CNC(=O)c1c(-c2ccc(F)cc2)oc2ccc(-c3cc(C(=O)NC4(c5ncccn5)CC(OC)(OC)C4)c(OC)cc3C)c(F)c12` [Example 14, 5-(5-((3,3-Dimethoxy-1-(pyrimidin-2-yl)cyclobutyl)carbamoyl)-4-methoxy-2-methylphenyl)-4-fluoro-2-(4-fluorophenyl)-N-methylbenzofuran-3-carboxamide] here?
**A.** 20 nM

**Q.** What about the IC50 [2] of the same compound?
**A.** 30 nM

**Q.** `CNC(=O)c1c(-c2ccc(F)cc2)oc2ccc(-c3cc(C(=O)NC4(c5ncccn5)CC(F)(F)C4)ccc3C)c(F)c12` [Example 15, 5-(5-((3,3-Difluoro-1-(pyrimidin-2-yl)cyclobutyl)carbamoyl)-2-methylphenyl)-4-fluoro-2-(4-fluorophenyl)-N-methylbenzofuran-3-carboxamide] was tested. Which EC50 ([1]; Hepatitis C virus, Huh-7, 72 h) did it give?
**A.** 30 nM

**Q.** What about the IC50 [2] of the same compound?
**A.** 30 nM

**Q.** Which EC50 ([1]; Hepatitis C virus, Huh-7, 72 h) does the source give for `CNC(=O)c1c(-c2ccc(F)cc2)oc2ccc(-c3cc(C(=O)NC4(c5ncccn5)CC(F)C4)ccc3C)c(F)c12` (stereo not shown) [Example 16, 4-Fluoro-5-(5-(3-fluoro-1-(pyrimidin-2-yl)cyclobutylcarbamoyl)-2-methylphenyl)-2-(4-fluorophenyl)-N-methylbenzofuran-3-carboxamide] here?
**A.** 6.62 nM

**Q.** And the IC50 [2]?
**A.** 30 nM
